Experimental data as given in patent publication US6737383B1, “Herbicidal oxadiazolidines” (priority 1999, dated 2004).

Legend:
velvetleaf = assay: Test B pre/postemergence velvetleaf; format: in vivo, Abutilon theophrasti
In short: (§1)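 Herbicidal effect was estimated by eye on a ten-point control scale after plants spent twelve to sixteen days in a greenhouse following soil or foliar treatment. Foliar sprays targeted plants at one to four leaves; all doses were formulated in a non-phytotoxic solvent with surfactant.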

corn = assay: Test B pre/postemergence corn; format: in vivo, Zea mays
In short: as §1

giant foxtail = assay: Test B pre/postemergence giant foxtail; format: in vivo, Setaria faberii
In short: as §1

purple nutsedge = assay: Test B pre/postemergence purple nutsedge; format: in vivo, Cyperus rotundus
In short: as §1

soybean = assay: Test B pre/postemergence soybean; format: in vivo, Glycine max
In short: as §1

blackgrass = assay: Test B pre/postemergence blackgrass; format: in vivo, Alopecurus myosuroides
In short: as §1

surinam grass = assay: Test B pre/postemergence surinam grass; format: in vivo, Brachiaria decumbens
In short: as §1

cocklebur = assay: Test B pre/postemergence cocklebur; format: in vivo, Xanthium strumarium
In short: as §1

rape = assay: Test B pre/postemergence rape; format: in vivo, Brassica napus
In short: as §1

bedstraw = assay: Test B pre/postemergence bedstraw; format: in vivo, Galium aparine
In short: as §1

wild oat = assay: Test B pre/postemergence wild oat; format: in vivo, Avena fatua
In short: as §1

crabgrass = assay: Test B pre/postemergence crabgrass; format: in vivo, Digitaria sanguinalis
In short: as §1

pigweed = assay: Test B pre/postemergence pigweed; format: in vivo, Amaranthus retroflexus
In short: as §1

morningglory = assay: Test B pre/postemergence morningglory; format: in vivo, Ipomoea hederacea
In short: as §1

sugar beet = assay: Test B pre/postemergence sugar beet; format: in vivo, Beta vulgaris
In short: as §1

wheat = assay: Test B pre/postemergence wheat; format: in vivo, Triticum aestivum
In short: as §1

[1] = Preemergence, Rate 62 g/ha, scale of 0 to 10 where 0 is no effect and 10 is complete control
[2] = Preemergence, Rate 125 g/ha, scale of 0 to 10 where 0 is no effect and 10 is complete control
[3] = Preemergence, Rate 250 g/ha, scale 0 to 10 (0 no effect, 10 complete control)
[4] = Preemergence, Rate 500 g/ha, scale of 0 to 10 where 0 is no effect and 10 is complete control
[5] = Postemergence, Rate 62 g/ha, scale 0 to 10, 0 is no effect, 10 is complete control
[6] = Postemergence, Rate 125 g/ha, scale of 0 to 10 where 0 is no effect and 10 is complete control
[7] = Preemergence, Rate 250 g/ha, scale 0 (no effect) to 10 (complete control)
[8] = Rate 62 g/ha, Preemergence, scale 0 to 10
[9] = Rate 250 g/ha, Postemergence, scale 0 to 10, 0 is no effect, 10 is complete control
[10] = Rate 500 g/ha, Postemergence, scale 0 to 10, 0 is no effect, 10 is complete control
[11] = Rate 500 g/ha, Preemergence, scale 0 to 10 (0 no effect, 10 complete control)

CCC(C)N(C(=O)n1oc(=O)n(C(C)C)c1=O)c1ccc(F)cc1 (stereo not drawn) [Compound 689]
Velvetleaf plant response rating (velvetleaf; [1]): 2 | Plant response rating, Velvetleaf (velvetleaf; [2]): 3 | Corn plant response rating (corn; [1]): 0 | Plant response rating, Corn (corn; [2]): 6 | Plant response rating, Corn (corn; [3]): 9 | Giant foxtail plant response rating (giant foxtail; [1]): 10 | Plant response rating, Giant foxtail (giant foxtail; [2]): 10 | Nutsedge plant response rating (purple nutsedge; [1]): 0 | Plant response rating, Nutsedge (purple nutsedge; [2]): 0 | Soybean plant response rating (soybean; [1]): 0 | Plant response rating, Soybean (soybean; [2]): 0 | Blackgrass plant response rating (blackgrass; [1]): 9 | Plant response rating, Blackgrass (blackgrass; [2]): 9 | Plant response rating, Blackgrass (blackgrass; [3]): 10 | Plant response rating, Blackgrass (blackgrass; [4]): 10 | B. signalgrass plant response rating (surinam grass; [1]): 2 | Plant response rating, B. signalgrass (surinam grass; [2]): 4 | Plant response rating, B. signalgrass (surinam grass; [3]): 9 | Plant response rating, B. signalgrass (surinam grass; [4]): 10 | Cocklebur plant response rating (cocklebur; [1]): 0 | Plant response rating, Cocklebur (cocklebur; [2]): 0 | Plant response rating, Cocklebur (cocklebur; [3]): 0 | Plant response rating, Cocklebur (cocklebur; [4]): 0 | Rape plant response rating (rape; [1]): 0 | Plant response rating, Rape (rape; [2]): 0 | Bedstraw plant response rating (bedstraw; [1]): 0 | Plant response rating, Bedstraw (bedstraw; [2]): 0 | Plant response rating, Bedstraw (bedstraw; [3]): 7 | Plant response rating, Bedstraw (bedstraw; [4]): 5 | Wild oats plant response rating (wild oat; [1]): 7 | Plant response rating, Wild oats (wild oat; [2]): 9 | Crabgrass plant response rating (crabgrass; [1]): 9 | Plant response rating, Crabgrass (crabgrass; [2]): 9 | Plant response rating, Crabgrass (crabgrass; [3]): 10 | Redroot pigweed plant response rating (pigweed; [1]): 3 | Plant response rating, Redroot pigweed (pigweed; [2]): 7 | Morningglory plant response rating (morningglory; [1]): 0 | Plant response rating, Morningglory (morningglory; [2]): 3 | Sugarbeets plant response rating (sugar beet; [1]): 0 | Plant response rating, Sugarbeets (sugar beet; [2]): 2 | Wheat plant response rating (wheat; [1]): 0 | Plant response rating, Wheat (wheat; [2]): 0

CC(C)N(C(=O)n1oc(=O)n(CC(F)F)c1=O)c1ccccc1 [Compound 746]
Plant response rating, Velvetleaf (velvetleaf; [5]): 2 | Velvetleaf plant response rating (velvetleaf; [6]): 6 | Plant response rating, Velvetleaf (velvetleaf; [2]): 6 | Velvetleaf plant response rating (velvetleaf; [7]): 7 | Velvetleaf plant response rating (velvetleaf; [8]): 4 | Velvetleaf plant response rating (velvetleaf; [9]): 6 | Velvetleaf plant response rating (velvetleaf; [10]): 7 | Velvetleaf plant response rating (velvetleaf; [11]): 8 | Plant response rating, Corn (corn; [5]): 0 | Corn plant response rating (corn; [6]): 0 | Plant response rating, Corn (corn; [2]): 3 | Corn plant response rating (corn; [7]): 3 | Corn plant response rating (corn; [8]): 0 | Corn plant response rating (corn; [9]): 4 | Corn plant response rating (corn; [10]): 5 | Corn plant response rating (corn; [11]): 4 | Plant response rating, Giant foxtail (giant foxtail; [5]): 6 | Giant foxtail plant response rating (giant foxtail; [6]): 8 | Plant response rating, Giant foxtail (giant foxtail; [2]): 10 | Giant foxtail plant response rating (giant foxtail; [7]): 10 | Giant foxtail plant response rating (giant foxtail; [8]): 10 | Giant foxtail plant response rating (giant foxtail; [9]): 9 | Giant foxtail plant response rating (giant foxtail; [10]): 9 | Giant foxtail plant response rating (giant foxtail; [11]): 10 | Plant response rating, Nutsedge (purple nutsedge; [5]): 0 | Nutsedge plant response rating (purple nutsedge; [6]): 0 | Plant response rating, Nutsedge (purple nutsedge; [2]): 3 | Nutsedge plant response rating (purple nutsedge; [8]): 0 | Nutsedge plant response rating (purple nutsedge; [9]): 2 | Nutsedge plant response rating (purple nutsedge; [10]): 4 | Nutsedge plant response rating (purple nutsedge; [11]): 5 | Plant response rating, Soybean (soybean; [5]): 2 | Soybean plant response rating (soybean; [6]): 3 | Plant response rating, Soybean (soybean; [2]): 0 | Soybean plant response rating (soybean; [7]): 5 | Soybean plant response rating (soybean; [8]): 0 | Soybean plant response rating (soybean; [9]): 4 | Soybean plant response rating (soybean; [10]): 6 | Soybean plant response rating (soybean; [11]): 5 | Plant response rating, Blackgrass (blackgrass; [5]): 5 | Blackgrass plant response rating (blackgrass; [6]): 7 | Plant response rating, Blackgrass (blackgrass; [2]): 9 | Blackgrass plant response rating (blackgrass; [7]): 10 | Blackgrass plant response rating (blackgrass; [8]): 9 | Blackgrass plant response rating (blackgrass; [9]): 8 | Blackgrass plant response rating (blackgrass; [10]): 8 | Plant response rating, B. signalgrass (surinam grass; [5]): 3 | B. signalgrass plant response rating (surinam grass; [6]): 4 | B. signalgrass plant response rating (surinam grass; [1]): 7 | Plant response rating, B. signalgrass (surinam grass; [2]): 9 | B. signalgrass plant response rating (surinam grass; [7]): 9 | B. signalgrass plant response rating (surinam grass; [9]): 6 | B. signalgrass plant response rating (surinam grass; [10]): 8 | Plant response rating, Cocklebur (cocklebur; [5]): 0 | Cocklebur plant response rating (cocklebur; [6]): 2 | Plant response rating, Cocklebur (cocklebur; [2]): 0 | Cocklebur plant response rating (cocklebur; [7]): 0 | Cocklebur plant response rating (cocklebur; [9]): 2 | Cocklebur plant response rating (cocklebur; [10]): 4 | Cocklebur plant response rating (cocklebur; [11]): 4 | Plant response rating, Rape (rape; [5]): 4 | Rape plant response rating (rape; [6]): 4 | Plant response rating, Rape (rape; [2]): 9 | Rape plant response rating (rape; [7]): 9 | Rape plant response rating (rape; [8]): 2 | Rape plant response rating (rape; [9]): 7 | Rape plant response rating (rape; [10]): 7 | Bedstraw plant response rating (bedstraw; [6]): 7 | Bedstraw plant response rating (bedstraw; [8]): 8 | Bedstraw plant response rating (bedstraw; [9]): 8 | Bedstraw plant response rating (bedstraw; [10]): 9 | Plant response rating, Wild oats (wild oat; [5]): 0 | Wild oats plant response rating (wild oat; [6]): 2 | Plant response rating, Wild oats (wild oat; [2]): 10 | Wild oats plant response rating (wild oat; [7]): 10 | Wild oats plant response rating (wild oat; [8]): 7 | Wild oats plant response rating (wild oat; [9]): 6 | Wild oats plant response rating (wild oat; [10]): 7 | Plant response rating, Crabgrass (crabgrass; [5]): 7 | Crabgrass plant response rating (crabgrass; [6]): 9 | Plant response rating, Crabgrass (crabgrass; [2]): 10 | Crabgrass plant response rating (crabgrass; [7]): 10 | Crabgrass plant response rating (crabgrass; [8]): 9 | Crabgrass plant response rating (crabgrass; [9]): 9 | Crabgrass plant response rating (crabgrass; [10]): 10 | Crabgrass plant response rating (crabgrass; [11]): 10 | Plant response rating, Redroot pigweed (pigweed; [5]): 6 | Redroot pigweed plant response rating (pigweed; [6]): 5 | Plant response rating, Redroot pigweed (pigweed; [2]): 10 | Redroot pigweed plant response rating (pigweed; [7]): 10 | Redroot pigweed plant response rating (pigweed; [8]): 10 | Redroot pigweed plant response rating (pigweed; [9]): 8 | Redroot pigweed plant response rating (pigweed; [10]): 9 | Plant response rating, Morningglory (morningglory; [5]): 4 | Morningglory plant response rating (morningglory; [6]): 8 | Plant response rating, Morningglory (morningglory; [2]): 4 | Morningglory plant response rating (morningglory; [7]): 6 | Morningglory plant response rating (morningglory; [8]): 0 | Morningglory plant response rating (morningglory; [9]): 10 | Morningglory plant response rating (morningglory; [10]): 10 | Morningglory plant response rating (morningglory; [11]): 8 | Plant response rating, Sugarbeets (sugar beet; [5]): 0 | Sugarbeets plant response rating (sugar beet; [6]): 0 | Plant response rating, Sugarbeets (sugar beet; [2]): 7 | Sugarbeets plant response rating (sugar beet; [7]): 7 | Sugarbeets plant response rating (sugar beet; [8]): 5 | Sugarbeets plant response rating (sugar beet; [9]): 4 | Sugarbeets plant response rating (sugar beet; [10]): 4 | Plant response rating, Wheat (wheat; [5]): 0 | Wheat plant response rating (wheat; [6]): 4 | Plant response rating, Wheat (wheat; [2]): 7 | Wheat plant response rating (wheat; [7]): 8 | Wheat plant response rating (wheat; [8]): 6 | Wheat plant response rating (wheat; [10]): 6
